Results from patent publication US20250236608A1, “EGFR INHIBITORS” (Blueprint Medicines Corporation, priority 2022, published 2025).
pIC50: −log10 of the molar value.

Key:
[1] = target: pEGFR (Tyr1068) in PC-9 cells (Ex19Del) (Homo sapiens (Human), UniProt P00533, DEL746-750); experiment: PC-9 pEGFR AlphaLISA assay; type: cell-based; settings: 4 hours incubation, p-EGFR (Tyr1068) AlphaLISA, read-out: Ext pEGFR_PC-9 Ex19Del IC50
Summary of the method: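 First, cells settled overnight in 10% FBS medium. Second, a 10-point, 4-fold series of test agents was applied for 4 h at 37° C. Third, lysates were probed with AlphaLISA acceptor and donor beads, incubated overnight in the dark. Last, IC50 was taken from the dose-response.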

EGFR L858R = EGFR L858R (Homo sapiens (Human), UniProt P00533, L858R); experiment: Biochemical EGFR inhibition assay, EGFR L858R; settings: Caliper mobility shift; 1.0 mM ATP or ATP Km; read-out: Enz EGFR_L858R IC50
EGFR L858R, sequence (P00533 25-1210 L858R): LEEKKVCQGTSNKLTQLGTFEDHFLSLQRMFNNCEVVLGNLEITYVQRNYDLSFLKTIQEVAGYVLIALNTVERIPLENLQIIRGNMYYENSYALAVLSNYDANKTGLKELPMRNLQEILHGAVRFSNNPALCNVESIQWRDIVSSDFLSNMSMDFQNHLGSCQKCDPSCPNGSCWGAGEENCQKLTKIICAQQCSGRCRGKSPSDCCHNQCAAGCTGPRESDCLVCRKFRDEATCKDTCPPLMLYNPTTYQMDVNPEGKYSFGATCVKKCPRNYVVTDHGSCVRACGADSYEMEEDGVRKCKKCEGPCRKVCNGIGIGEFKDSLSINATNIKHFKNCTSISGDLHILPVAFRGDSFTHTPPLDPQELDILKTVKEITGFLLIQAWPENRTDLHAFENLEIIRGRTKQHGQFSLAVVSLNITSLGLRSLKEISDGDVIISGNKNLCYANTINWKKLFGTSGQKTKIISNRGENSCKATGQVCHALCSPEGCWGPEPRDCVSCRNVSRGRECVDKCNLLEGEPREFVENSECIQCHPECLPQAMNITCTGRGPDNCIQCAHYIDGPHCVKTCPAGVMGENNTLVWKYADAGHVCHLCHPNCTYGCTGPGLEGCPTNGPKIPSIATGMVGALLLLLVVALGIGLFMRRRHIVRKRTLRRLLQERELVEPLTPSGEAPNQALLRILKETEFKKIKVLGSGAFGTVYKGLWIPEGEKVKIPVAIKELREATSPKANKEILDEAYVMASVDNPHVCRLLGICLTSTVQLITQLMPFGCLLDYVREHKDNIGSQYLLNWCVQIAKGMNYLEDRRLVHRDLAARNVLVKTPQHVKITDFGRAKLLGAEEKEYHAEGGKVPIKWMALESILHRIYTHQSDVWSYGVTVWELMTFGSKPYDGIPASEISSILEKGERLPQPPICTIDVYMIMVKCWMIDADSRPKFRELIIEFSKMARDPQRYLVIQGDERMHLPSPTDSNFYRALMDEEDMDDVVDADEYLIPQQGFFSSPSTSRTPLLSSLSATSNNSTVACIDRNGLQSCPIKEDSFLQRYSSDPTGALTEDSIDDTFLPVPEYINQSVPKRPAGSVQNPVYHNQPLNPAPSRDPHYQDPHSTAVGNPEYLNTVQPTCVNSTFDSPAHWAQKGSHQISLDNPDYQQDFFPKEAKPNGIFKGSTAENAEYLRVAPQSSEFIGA

EGFR (d746-750) = EGFR (d746-750) (Homo sapiens (Human), UniProt P00533, DEL746-750); experiment: Biochemical EGFR inhibition assay, EGFR (d746-750); settings: Caliper mobility shift; 1.0 mM ATP or ATP Km; read-out: Enz EGFR_Exon19-del746-750 IC50
EGFR (d746-750), sequence (P00533 other isoform, or with tags, fused parts or gaps del 1-694/del 746-750 limits assumed): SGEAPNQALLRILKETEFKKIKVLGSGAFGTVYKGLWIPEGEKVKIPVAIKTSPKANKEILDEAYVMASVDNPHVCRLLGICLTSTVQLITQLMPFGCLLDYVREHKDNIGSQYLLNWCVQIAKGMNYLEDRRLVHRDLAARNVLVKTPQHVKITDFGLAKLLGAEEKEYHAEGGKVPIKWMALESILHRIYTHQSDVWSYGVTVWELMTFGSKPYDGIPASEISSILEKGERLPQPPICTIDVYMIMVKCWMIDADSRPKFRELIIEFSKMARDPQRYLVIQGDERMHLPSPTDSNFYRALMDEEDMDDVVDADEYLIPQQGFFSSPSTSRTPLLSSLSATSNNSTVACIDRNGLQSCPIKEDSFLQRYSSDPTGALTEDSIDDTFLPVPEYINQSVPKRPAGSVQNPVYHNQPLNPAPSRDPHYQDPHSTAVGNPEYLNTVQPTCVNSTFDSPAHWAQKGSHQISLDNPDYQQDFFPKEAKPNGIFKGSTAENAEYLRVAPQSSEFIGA

pEGFR (Tyr1068) in PC-9 cells (Ex19Del), sequence (P00533 other isoform, or with tags, fused parts or gaps del 746-750): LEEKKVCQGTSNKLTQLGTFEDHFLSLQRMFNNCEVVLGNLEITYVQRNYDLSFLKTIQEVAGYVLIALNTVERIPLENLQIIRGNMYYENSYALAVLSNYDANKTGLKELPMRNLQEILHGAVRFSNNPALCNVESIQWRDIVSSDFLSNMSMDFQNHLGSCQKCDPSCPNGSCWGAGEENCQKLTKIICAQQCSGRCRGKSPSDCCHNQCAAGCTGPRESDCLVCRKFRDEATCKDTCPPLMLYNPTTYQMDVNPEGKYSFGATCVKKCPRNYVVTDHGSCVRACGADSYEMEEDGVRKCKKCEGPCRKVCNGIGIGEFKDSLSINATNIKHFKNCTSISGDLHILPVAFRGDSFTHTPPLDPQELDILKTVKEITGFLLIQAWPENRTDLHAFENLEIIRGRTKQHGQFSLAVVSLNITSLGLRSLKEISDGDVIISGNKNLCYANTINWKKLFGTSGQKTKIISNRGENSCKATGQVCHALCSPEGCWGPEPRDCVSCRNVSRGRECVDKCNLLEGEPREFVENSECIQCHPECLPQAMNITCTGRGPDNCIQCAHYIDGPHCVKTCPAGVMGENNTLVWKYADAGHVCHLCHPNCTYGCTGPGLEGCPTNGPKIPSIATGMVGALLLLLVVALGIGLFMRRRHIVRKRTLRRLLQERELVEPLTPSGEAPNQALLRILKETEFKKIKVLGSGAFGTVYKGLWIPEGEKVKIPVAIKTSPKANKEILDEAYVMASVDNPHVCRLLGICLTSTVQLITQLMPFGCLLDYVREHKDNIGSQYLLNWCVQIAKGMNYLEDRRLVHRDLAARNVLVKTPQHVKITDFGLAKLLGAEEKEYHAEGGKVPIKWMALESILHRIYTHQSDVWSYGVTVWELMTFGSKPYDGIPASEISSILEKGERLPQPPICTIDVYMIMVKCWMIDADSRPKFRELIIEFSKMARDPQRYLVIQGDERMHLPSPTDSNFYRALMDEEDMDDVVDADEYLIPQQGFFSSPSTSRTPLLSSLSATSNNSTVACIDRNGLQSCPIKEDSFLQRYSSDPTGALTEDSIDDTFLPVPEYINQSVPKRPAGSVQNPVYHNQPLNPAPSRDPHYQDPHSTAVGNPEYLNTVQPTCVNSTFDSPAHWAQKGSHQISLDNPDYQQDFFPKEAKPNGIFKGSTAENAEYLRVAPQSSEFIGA

| SMILES | pIC50 [1] | pIC50 (EGFR L858R) | pIC50 (EGFR (d746-750)) |
| --- | --- | --- | --- |
| COc1cc2ncnc(-c3cn(CC(F)F)nc3-c3ccccc3)c2cc1NC(=O)[C@]12COC[C@H]1C2 [Example 275, (1S,5S)—N-(4-(1-(2,2-difluoroethyl)-3-phenyl-1H-pyrazol-4-yl)-7-methoxyquinazolin-6-yl)-3-oxabicyclo[3.1.0]hexane-1-carboxamide] | 8.72 | 8.72 | 8.89 |
| COc1cc2ncnc(-c3cn(C)nc3-c3ccccc3)c2nc1O[C@@H](C)c1nnc(C)o1 [Example 37, (S)-2-(1-((7-methoxy-4-(1-methyl-3-phenyl-1H-pyrazol-4-yl)pyrido[3,2-d]pyrimidin-6-yl)oxy)ethyl)-5-methyl-1,3,4-oxadiazole] | 8.34 | 8.28 | 8.70 |
| COc1cc2ncnc(-c3cn(C)nc3-c3ccccc3)c2cc1NC(=O)c1cnn(C(F)(F)F)c1 [Example 187, N-(7-methoxy-4-(1-methyl-3-phenyl-1H-pyrazol-4-yl)quinazolin-6-yl)-1-(trifluoromethyl)-1H-pyrazole-4-carboxamide] | 8.40 | 8.59 | 8.82 |
| CCC(=O)Nc1cc2c(-c3cn(C)nc3-c3ccccc3)ncnc2cc1-n1ccc(C)n1 [Example 450, N-(7-(3-methyl-1H-pyrazol-1-yl)-4-(1-methyl-3-phenyl-1H-pyrazol-4-yl)quinazolin-6-yl)propionamide] | 9.00 | 8.92 | 9.15 |
| COc1cc2ncnc(-c3cn(C)nc3-c3ccccc3)c2cc1O[C@H]1CCN(C)C[C@@H]1F [Example 2, 6-(((3S,4S)-3-fluoro-1-methylpiperidin-4-yl)oxy)-7-methoxy-4-(1-methyl-3-phenyl-1H-pyrazol-4-yl)quinazoline] | 8.31 | 8.37 | 8.72 |
| COc1cc2ncnc(-c3cn(C)nc3-c3ccccc3)c2nc1NC(=O)[C@]1(C(F)(F)F)CCCN1C (single isomer, unassigned) [Example 430, (S)—N-(7-methoxy-4-(1-methyl-3-phenyl-1H-pyrazol-4-yl)pyrido[3,2-d]pyrimidin-6-yl)-1-methyl-2-(trifluoromethyl) pyrrolidine-2-carboxamide or (R)—N-(7-methoxy-4-(1-methyl-3-phenyl-1H-pyrazol-4-yl)pyrido[3,2-d]pyrimidin-6-yl)-1-methyl-2-(trifluoromethyl) pyrrolidine-2-carboxamide] | 7.80 | 7.72 | 8.43 |
| Cc1ncsc1C(=O)Nc1cc2c(-c3cn(C)nc3-c3ccccc3)ncnc2cc1OCCN(C)C [Example 303, N-(7-(2-(dimethylamino)ethoxy)-4-(1-methyl-3-phenyl-1H-pyrazol-4-yl)quinazolin-6-yl)-4-methylthiazole-5-carboxamide] | 8.06 | 7.96 | 8.54 |
| COc1cc2ncnc(-c3cn(CC(F)F)nc3-c3ccccc3)c2cc1N1CCOCC1 [Example 168, 4-(4-(1-(2,2-difluoroethyl)-3-phenyl-1H-pyrazol-4-yl)-7-methoxyquinazolin-6-yl)morpholine] | 9.10 | 8.82 | 9.00 |
| COc1cc2ncnc(-c3cn(C)nc3-c3ccccc3)c2cc1NC(=O)c1cn(C(F)(F)F)nc1C [Example 235, N-(7-methoxy-4-(1-methyl-3-phenyl-1H-pyrazol-4-yl)quinazolin-6-yl)-3-methyl-1-(trifluoromethyl)-1H-pyrazole-4-carboxamide] | 8.82 | 8.80 | 9.05 |
| COc1cc2ncnc(-c3cn(C)nc3-c3ccccc3)c2cc1NC(=O)c1cnccc1F [Example 326, 4-fluoro-N-(7-methoxy-4-(1-methyl-3-phenyl-1H-pyrazol-4-yl)quinazolin-6-yl) nicotinamide] | 9.00 | 8.92 | 9.10 |
| COc1cc2ncnc(-c3cn(C)nc3-c3ccc(F)cc3)c2cc1NC(=O)C1CC(F)(F)C1 [Example 212, 3,3-difluoro-N-(4-(3-(4-fluorophenyl)-1-methyl-1H-pyrazol-4-yl)-7-methoxyquinazolin-6-yl)cyclobutane-1-carboxamide] | 9.00 | 9.40 | 9.70 |
| COc1cc2ncnc(-c3cn(C)nc3-c3ccccc3)c2cc1OC(=O)N1CCNCC1(C)C [Example 86, 7-methoxy-4-(1-methyl-3-phenyl-1H-pyrazol-4-yl)quinazolin-6-yl 2,2-dimethylpiperazine-1-carboxylate] | 8.24 | 8.30 | 8.60 |
| CCOc1cc2ncnc(-c3cn(C)nc3-c3ccccc3)c2nc1NC1CCOCC1 [Example 158, 7-ethoxy-4-(1-methyl-3-phenyl-1H-pyrazol-4-yl)-N-(tetrahydro-2H-pyran-4-yl)pyrido[3,2-d]pyrimidin-6-amine] | 9.70 | 8.77 | 8.85 |
| COc1cc2ncnc(-c3cn(C)nc3-c3ccccc3)c2nc1O[C@H](C)c1ncsc1C (single isomer, unassigned) [Example 53, (R)-4-(1-((7-methoxy-4-(1-methyl-3-phenyl-1H-pyrazol-4-yl)pyrido[3,2-d]pyrimidin-6-yl)oxy)ethyl)-5-methylthiazole or (S)-4-(1-((7-methoxy-4-(1-methyl-3-phenyl-1H-pyrazol-4-yl)pyrido[3,2-d]pyrimidin-6-yl)oxy)ethyl)-5-methylthiazole] | 8.57 | 7.89 | 8.96 |
| COc1cc2ncnc(-c3cn(C)nc3-c3ccccc3)c2cc1NC(=O)[C@@H]1C[C@H]1C(F)(F)F [Example 286, (1R,2R)—N-(7-methoxy-4-(1-methyl-3-phenyl-1H-pyrazol-4-yl)quinazolin-6-yl)-2-(trifluoromethyl)cyclopropane-1-carboxamide] | 8.37 | 8.46 | 8.80 |
| CCC(=O)Nc1cc2c(-c3cn(C)nc3-c3ccccc3)ncnc2cc1OC [Example 322, N-(7-methoxy-4-(1-methyl-3-phenyl-1H-pyrazol-4-yl)quinazolin-6-yl)propionamide] | 8.80 | 8.68 | 8.77 |
| COc1cc2ncnc(-c3cn(CC(F)F)nc3-c3ccccc3)c2cc1C(C)(C)O [Example 122, 2-(4-(1-(2,2-difluoroethyl)-3-phenyl-1H-pyrazol-4-yl)-7-methoxyquinazolin-6-yl) propan-2-ol] | 8.55 | 8.72 | 8.89 |
| CCN1CCN(C(=O)Oc2cc3c(-c4cn(C)nc4-c4ccccc4)ncnc3cc2OC)[C@@H](C)C1 [Example 75, 7-methoxy-4-(1-methyl-3-phenyl-1H-pyrazol-4-yl)quinazolin-6-yl (S)-4-ethyl-2-methylpiperazine-1-carboxylate] | 8.44 | 8.44 | 8.66 |
| COc1cc2ncnc(-c3cn(C)nc3-c3ccccc3)c2nc1NC(=O)c1cnc(C2CC2)s1 [Example 318, 2-cyclopropyl-N-(7-methoxy-4-(1-methyl-3-phenyl-1H-pyrazol-4-yl)pyrido[3,2-d]pyrimidin-6-yl)thiazole-5-carboxamide] | 9.15 | 9.15 | 9.40 |
